The structures appear in SMILES notation. Values after ≈ are worked out from the molar mass of the structure shown. Like-named read-outs stand apart in the source and are kept apart here.

For data set [1], the system named is salmonella typhi H901W. As to the kind of experiment: microbe, parasite or virus in culture. The data set is classed as cell-based. To be noted: Salmonella enterica.
Data set [2] has as its system escherichia coli Kauffman 0-1. As to the kind of experiment: MIC against escherichia coli Kauffman 0-1. The data set is classed as cell-based. From the text: (§1) Now, for illustrating the excellent pharmacological effects of the compounds of this invention, the values of MIC (γ/ml) of the compounds against various bacteria are shown in the following table, the compounds of this invention are shown by example numbers.
7: escherichia coli Kauffman 0-1

For data set [3], the system named is proteus vulgaris OX 19US. As to the kind of experiment: MIC against proteus vulgaris OX 19US. The data set is classed as cell-based. To be noted: OX19US.
From the text: as §1
2. proteus vulgaris OX 19US

For data set [4], the system named is bacillus megatherium 10778. Put plainly: MIC against bacillus megatherium 10778. To be noted: bacillus megatherium 10778; read-out: MIC. The data set is classed as cell-based.
From the text: as §1

A short description of data set [5]: water solubility, naked-eye observation of solutions. The format is physicochemical. From the text: Then, the experimental results showing the excellent water solubility of the compounds of this invention are illustrated in the following table, the results being the observation results by the naked eyes of the solutions thereof in each concentration as shown in the table.

Data set [6] deals with staphylococcus Shimanishi. Put plainly: MIC against staphylococcus Shimanishi. The data set is classed as cell-based.
From the text: as §1
17. staphylococcus Shimanishi

In data set [7] the test system is Bacillus subtilis ATCC 6633. As to the kind of experiment: MIC against Bacillus subtilis ATCC 6633. The format is cell-based. To be noted: ATCC6633; Bacillus subtilis ATCC 6633; read-out: MIC.
From the text: as §1
14: Bacillus subtilis ATCC 6633

Data set [8] relates to Pseudomonas ovalis IAM 1002. As to the kind of experiment: MIC against Pseudomonas ovalis IAM 1002. The data set is classed as cell-based. To be noted: Pseudomonas putida, IAM1002.
From the text: as §1
6: Pseudomonas ovalis IAM 1002

Data set [9] relates to pseudomonas aeruginosa 99 (Gentamycin resistant). Put plainly: MIC against pseudomonas aeruginosa 99 (Gentamycin resistant). The data set is classed as cell-based.
From the text: as §1
5: pseudomonas aeruginosa 99 (Gentamycin resistant)

The test system of data set [10] is staphylococcus aureus 209P. As to the kind of experiment: MIC against staphylococcus aureus 209P. The format is cell-based. To be noted: read-out: MIC.
From the text: as §1
16: staphylococcus aureus 209P

The test system of data set [11] is pseudomonas aeruginosa ATCC 8689. As to the kind of experiment: MIC against pseudomonas aeruginosa ATCC 8689. The format is cell-based. To be noted: ATCC8689.
From the text: as §1
4: pseudomonas aeruginosa ATCC 8689

Data set [12] concerns Klebsiella pneumoniae ATCC 10031. Put plainly: MIC against Klebsiella pneumoniae ATCC 10031. The format is cell-based. To be noted: ATCC10031.
From the text: as §1
8: Klebsiella pneumoniae ATCC 10031

For data set [13], the system named is Staphylococcus Onuma. Put plainly: MIC against Staphylococcus Onuma. The format is cell-based.
From the text: as §1

Data set [14] relates to Shigella flexnori 2a 1675. As to the kind of experiment: MIC against Shigella flexnori 2a 1675. The format is cell-based. To be noted: 2A1675.
From the text: as §1

Data set [15] relates to salmonella enteritidis. Put plainly: MIC against salmonella enteritidis. The format is cell-based. To be noted: Salmonella enterica; salmonella enteritidis; read-out: MIC.
From the text: as §1
10: salmonella enteritidis

In data set [16] the test system is proteus mirabilis IFM OM-19. As to the kind of experiment: MIC against proteus mirabilis IFM OM-19. To be noted: IFMOM19. The data set is classed as cell-based.
From the text: as §1
3. proteus mirabilis IFM OM-19

In data set [17] the test system is micrococcus flavus ATCC 10240. As to the kind of experiment: MIC against micrococcus flavus ATCC 10240. To be noted: ATCC10240; micrococcus flavus ATCC 10240; read-out: MIC. The data set is classed as cell-based.
From the text: as §1

Data set [18] deals with Shigella sonnei II 37148. Put plainly: MIC against Shigella sonnei II 37148. To be noted: II37148. The format is cell-based.
From the text: as §1

Data set [19] deals with Proteus vulgaris OXK US. As to the kind of experiment: MIC against Proteus vulgaris OXK US. The format is cell-based. To be noted: Proteus vulgaris OXK US; read-out: MIC.
From the text: as §1
1: Proteus vulgaris OXK US

[20] abbreviates: escherichia coli Kauffman 0-1, read-out: MIC.
Setting [21] is: proteus vulgaris OX 19US, read-out: MIC.
The mark [22] stands for this setting: staphylococcus Shimanishi, read-out: MIC.
Where [23] appears, read: Klebsiella pneumoniae ATCC 10031, read-out: MIC.
Where [24] appears, read: Staphylococcus Onuma, read-out: MIC.
Where [25] appears, read: pseudomonas aeruginosa 99 (Gentamycin resistant), read-out: MIC.
Setting [26] is: pseudomonas aeruginosa ATCC 8689, read-out: MIC.

Turning to `Cc1nc(S)cc(SCC2=C(C(=O)O)N3C(=O)[C@@H](NC(=O)[C@H](NC(=O)c4cnccc4O)c4ccccc4)[C@H]3SC2)n1` [Example 2, 7-[D-α-(4-hydroxynicotinoylamido)-α-phenylacetamido]-3-(2-methyl-4-mercaptopyrimidin-6-yl)thiomethyl-Δ ^3-cephem-4-carboxylicacid], the MIC came to 0.19 µg/mL (≈ 0.304 µM) in data set [1]; 6.25 µg/mL (≈ 10 µM) in data set [2] (setting [20]); 1.56 µg/mL (≈ 2.5 µM) in [3] (setting [21]); 0.19 µg/mL (≈ 0.304 µM) in data set [4]; 3.13 µg/mL (≈ 5.01 µM) in [6] (setting [22]); 0.39 µg/mL (≈ 0.624 µM) in data set [7]. Besides, the MIC in data set [8] was determined as 12.5 µg/mL (≈ 20 µM); in data set [9] (Pseudomonas aeruginosa) it was 12.5 µg/mL (≈ 20 µM); in [10], 0.39 µg/mL (≈ 0.624 µM); in data set [11] (Pseudomonas aeruginosa), 12.5 µg/mL (≈ 20 µM); in data set [12] (setting [23]), 3.13 µg/mL (≈ 5.01 µM); in data set [13] (setting [24]) it was 6.25 µg/mL (≈ 10 µM). Moreover, the MIC in data set [14] is 12.5 µg/mL (≈ 20 µM); in data set [15] it was 0.19 µg/mL (≈ 0.304 µM); in data set [16], 0.39 µg/mL (≈ 0.624 µM); in data set [17] it was 3.13 µg/mL (≈ 5.01 µM); in data set [18], 12.5 µg/mL (≈ 20 µM); in data set [19] it was 0.19 µg/mL (≈ 0.304 µM). For the same compound, the “water solubility (appearance of solution by the naked eyes)” value in data set [5] (concentration 1%) is recorded as “clear”; in [5] (concentration 5%), “clear”; in data set [5] (concentration 10%) it was “clear”; in data set [5] (concentration 20%), “slightly turbid”.
As to `Cc1c(S)sc(SCC2=C(C(=O)O)N3C(=O)[C@@H](NC(=O)[C@H](NC(=O)c4cnccc4O)c4ccccc4)[C@H]3SC2)c(C)c1=O` [Example 3, 7-[D-α-(4-hydroxynicotinoylamido)-α-phenylacetamido]-3-(3,5-dimethyl-6-mercapto-4-oxo-4H-thiopyran-2-yl)thiomethyl-Δ^3-cephem-4-carboxylic acid], the MIC was determined as 3.13 µg/mL (≈ 4.67 µM) in data set [1]; 12.5 µg/mL (≈ 18.6 µM) in data set [2] (Escherichia coli); 0.39 µg/mL (≈ 0.581 µM) in [3] (setting [21]); 0.19 µg/mL (≈ 0.283 µM) in [4]; 6.25 µg/mL (≈ 9.32 µM) in data set [6] (Staphylococcus); 0.78 µg/mL (≈ 1.16 µM) in data set [7]. Further, the MIC is 6.25 µg/mL (≈ 9.32 µM) in [8]; 12.5 µg/mL (≈ 18.6 µM) in data set [9] (Pseudomonas aeruginosa); 1.56 µg/mL (≈ 2.33 µM) in [10]; 12.5 µg/mL (≈ 18.6 µM) in data set [11] (Pseudomonas aeruginosa); 12.5 µg/mL (≈ 18.6 µM) in [12] (Klebsiella pneumoniae); 12.5 µg/mL (≈ 18.6 µM) in data set [13] (Staphylococcus). Moreover, the MIC in [14] came out at 6.25 µg/mL (≈ 9.32 µM); in data set [15], 0.78 µg/mL (≈ 1.16 µM); in [16], 0.78 µg/mL (≈ 1.16 µM); in data set [17], 1.56 µg/mL (≈ 2.33 µM); in [18] it was 12.5 µg/mL (≈ 18.6 µM); in [19], 0.19 µg/mL (≈ 0.283 µM). For the same compound, the “water solubility (appearance of solution by the naked eyes)” value in data set [5] (concentration 1%), in data set [5] (concentration 5%), in data set [5] (concentration 10%) and in data set [5] (concentration 20%) was “clear” throughout.
In the case of `Nc1nc(S)cc(SCC2=C(C(=O)O)N3C(=O)[C@@H](NC(=O)[C@H](NC(=O)c4cnccc4O)c4ccccc4)[C@H]3SC2)n1` [Example 6], the MIC is 0.19 µg/mL (≈ 0.304 µM) in data set [1]; 6.25 µg/mL (≈ 9.99 µM) in [2] (setting [20]); 12.5 µg/mL (≈ 20 µM) in data set [3] (Proteus vulgaris); 0.78 µg/mL (≈ 1.25 µM) in [4]; 3.13 µg/mL (≈ 5 µM) in data set [6] (setting [22]); 0.78 µg/mL (≈ 1.25 µM) in [7]. Further, the MIC in data set [8] was 12.5 µg/mL (≈ 20 µM); in [9] (setting [25]) it was 50 µg/mL (≈ 79.9 µM); in data set [10], 0.78 µg/mL (≈ 1.25 µM); in data set [11] (setting [26]) it was 100 µg/mL (≈ 160 µM); in data set [12] (setting [23]), 6.25 µg/mL (≈ 9.99 µM); in data set [13] (setting [24]), 6.25 µg/mL (≈ 9.99 µM). Also, the MIC in data set [14] was 12.5 µg/mL (≈ 20 µM); in data set [15] it was 0.39 µg/mL (≈ 0.623 µM); in data set [16] it was 1.56 µg/mL (≈ 2.49 µM); in data set [17] it was 3.13 µg/mL (≈ 5 µM); in [18] it was 12.5 µg/mL (≈ 20 µM); in data set [19], 0.19 µg/mL (≈ 0.304 µM).
For `CC(=O)Nc1nc(S)nc(SCC2=C(C(=O)O)N3C(=O)[C@@H](NC(=O)[C@H](NC(=O)c4cnccc4O)c4ccccc4)[C@H]3SC2)n1` [Example 4, 7-[D-α-(4-hydroxynicotinoylamido)-α-phenylacetamido]-3-(4-mercapto-6-acetylamino-1,3,5-triazin-2-yl)thiomethyl-Δ^3-cephem-4-carboxylic acid], the MIC was 0.39 µg/mL (≈ 0.583 µM) in data set [1]; 6.25 µg/mL (≈ 9.35 µM) in data set [2] (setting [20]); 6.25 µg/mL (≈ 9.35 µM) in data set [3] (setting [21]); 0.39 µg/mL (≈ 0.583 µM) in data set [4]; 6.25 µg/mL (≈ 9.35 µM) in data set [6] (setting [22]); 0.78 µg/mL (≈ 1.17 µM) in [7]. The MIC turned out to be 50 µg/mL (≈ 74.8 µM) in data set [8] (Pseudomonas ovalis IAM 1002, read-out: MIC); 50 µg/mL (≈ 74.8 µM) in [9] (setting [25]); 1.56 µg/mL (≈ 2.33 µM) in data set [10]; 50 µg/mL (≈ 74.8 µM) in [11] (setting [26]); 12.5 µg/mL (≈ 18.7 µM) in data set [12] (Klebsiella pneumoniae); 6.25 µg/mL (≈ 9.35 µM) in data set [13] (setting [24]). Besides, the MIC is 12.5 µg/mL (≈ 18.7 µM) in data set [14]; 0.78 µg/mL (≈ 1.17 µM) in data set [15]; 0.39 µg/mL (≈ 0.583 µM) in data set [16]; 6.25 µg/mL (≈ 9.35 µM) in data set [17]; 12.5 µg/mL (≈ 18.7 µM) in data set [18]; 0.19 µg/mL (≈ 0.284 µM) in data set [19].
Take `O=C(O)C1=C(CSc2cc(S)ncn2)CS[C@@H]2[C@H](NC(=O)[C@H](NC(=O)c3cnccc3O)c3ccccc3)C(=O)N12` [Example 5, 7-[D-α-(4-hydroxynicotinoylamido)-α-phenylacetamido]-3-(4-mercaptopyrimidin-6-yl)thiomethyl-Δ^3-cephem-4-carboxylic acid]: the MIC in [1] is under 0.09 µg/mL; in data set [2] (setting [20]) it was 3.13 µg/mL (≈ 5.13 µM); in data set [3] (setting [21]), 0.78 µg/mL (≈ 1.28 µM); in [4], 0.19 µg/mL (≈ 0.311 µM); in data set [6] (setting [22]), 3.13 µg/mL (≈ 5.13 µM); in data set [7], 0.39 µg/mL (≈ 0.639 µM). Moreover, the MIC in data set [8] is 6.25 µg/mL (≈ 10.2 µM); in data set [9] (setting [25]), 25 µg/mL (≈ 40.9 µM); in data set [10] it was 0.78 µg/mL (≈ 1.28 µM); in [11] (setting [26]), 25 µg/mL (≈ 40.9 µM); in data set [12] (setting [23]) it was 3.13 µg/mL (≈ 5.13 µM); in data set [13] (Staphylococcus), 6.25 µg/mL (≈ 10.2 µM). Besides, the MIC in data set [14] was 6.25 µg/mL (≈ 10.2 µM); in data set [15], 0.39 µg/mL (≈ 0.639 µM); in [16], 0.19 µg/mL (≈ 0.311 µM); in [17] it was 3.13 µg/mL (≈ 5.13 µM); in data set [18], 6.25 µg/mL (≈ 10.2 µM); in data set [19], under 0.09 µg/mL.

The values above are taken from patent US4036834A, “Derivatives of 7-(α-hydroxy-substituted pyridyl carboxamido-α p h Δ^3 -cephem-4-carboxylic acid” (Yamanouchi Pharmaceutical Co., Ltd., priority 1974, dated 1977).
